Here are results for twelve compounds from patent US7528205B2, “Photo radical generator, photo sensitive resin composition and article” (Dai Nippon Printing Co., Ltd., priority 2003, dated 2009).

A short description of data set [1]: Evaluation of heat resistance (thermogravimetry, 5% reduction in weight temperature). The note with it: for 5% heat decomposition temperature: temperature rise rate 10° C./min; for residue on heating: heated to 600° C. in a nitrogen atmosphere. In kind it is physicochemical. Here is the method:
Herein, the 5% reduction in weight temperature means a temperature at which the weight of a sample is reduced […] when a decrement of weight is measured using a thermogravimetric analyzer according to the same method as in the examples of the present invention as will be explained later. Similarly, the 10% reduction in weight temperature means a temperature at which the weight of a sample is reduced […].
Using a differential type differential thermal balance (product name: TG8120; manufactured by Rigaku Corporation), the 5% reduction in weight temperature of each of the compounds 1 to 15 was measured at a temperature rise rate of 10° C./min in a nitrogen atmosphere. As comparative examples, the comparative compounds 2 and 3 and a self-cleavage type photoradical generator Irgacure 907 (trademark; manufactured by Ciba Specialty Chemicals) were similarly measured.

A short description of data set [2]: Evaluation 1 of curability (coating layer with trifunctional acrylate, UV exposure, no hydrogen donor). The conditions noted are these: for Reaction rate (decrement of double bond): nitrogen; for Compatibility with M305: imide part/double bond 1/50. How it is done:
(§1) Using a trifunctional acrylate (product name; M-305, manufactured by Toagosei Co., Ltd.) as polyfunctional monomers, the compounds 1 to 14, the comparative compounds 2 and 3 and a photoradical generator Irgacure 907 (product name; manufactured by Ciba Specialty Chemicals) were mixed with each polyfunctional monomer to prepare each THF solution of each photoradical generator.
(§2) The mixing was performed so that a ratio of the photoradical generator to the polyfunctional monomer is such that number of imide part of each of the compounds 1 to 14 and the comparative compounds 2 and 3 with respect to number of double bond of the polyfunctional monomer is 1/50 (number of imide part/number of polyfunctional monomer) or, in the case of Irgacure, number of the molecule with respect to number of double bond of the polyfunctional monomer is 1/50 (number of Irgacure 907/number of polyfunctional monomer).
(§3) Each solution was applied by spin coating to a glass substrate on which chromium was sputtered to obtain coating layers. Also, a layer without initiator component or comparative compounds and only containing trifunctional acrylate was formed as a blank.
(§4) A decrement of the peak at 810 cm^−1 was recorded with time by using an infrared spectrometer (product name: FTS6000; manufactured by BIO RAD) while exposing the above coating layer to ultraviolet rays, to confirm the degree of the disappearance of a double bond. The atmosphere around the sample during measurement was replaced with nitrogen. As the UV exposure apparatus, UV Spot Cure SP-III type (standard reflecting mirror type) manufactured by Ushio Inc. was used and as the UV lamp, USH-255BY (manufactured by Ushio Inc.) was used.

A short description of data set [3]: Evaluation 2 of curability (triethanolamine added as hydrogen donor). Here is the method: as §1, §2, §3, §4
In order to confirm whether or not the seven-membered ring imide structure-containing group was a hydrogen-drawing type radical generator, triethanolamine was added to THF solutions containing each of the compositions 1 to 14 used in the aforementioned Evaluation 1 of curability and trifunctional acrylate M305, coating layers were formed in the same manner as in the aforementioned Evaluation 1 of curability, and evaluated similarly. As comparative examples, each of the comparative compounds 1 and 3 was used.

Consider `CC(=O)OCCn1c(=O)c2ccccc2c2ccccc2c1=O` [Compound 2], for which, in data set [1] (nitrogen atmosphere), the “5% heat decomposition temperature” value was determined as 240 °C. The “Reaction rate (decrement of double bond)” value was found to be 0.1% in data set [2] (Exposure 50 mJ); 0.2% in data set [2] (Exposure 100 mJ); 1.2% in data set [2] (Exposure 400 mJ); 23.7% in data set [3] (Exposure 50 mJ); 29.4% in data set [3] (Exposure 100 mJ); 41.1% in data set [3] (Exposure 400 mJ). Also, the “Compatibility with M305” value in data set [2] and in data set [3] was “∘” each time.
In the case of `CC(=O)OCCOCCn1c(=O)c2ccccc2c2ccccc2c1=O` [Compound 3], the “5% heat decomposition temperature” value in data set [1] (nitrogen atmosphere) was 260 °C. The “Reaction rate (decrement of double bond)” value in data set [2] (Exposure 50 mJ) was determined as 0.1%; in data set [2] (Exposure 100 mJ), 0.2%; in data set [2] (Exposure 400 mJ) it was 0.8%; in data set [3] (Exposure 50 mJ) it was 26.8%; in data set [3] (Exposure 100 mJ), 32.7%; in data set [3] (Exposure 400 mJ) it was 43.7%. Moreover, the “Compatibility with M305” value in data set [2] and in data set [3] was “∘” throughout.
`CC(=O)OCC(C(C)C)n1c(=O)c2ccccc2c2ccccc2c1=O` (centres unmarked) [Compound 4]: the “5% heat decomposition temperature” value in data set [1] (nitrogen atmosphere) amounted to 208 °C. Also, the “Reaction rate (decrement of double bond)” value in data set [2] (Exposure 50 mJ) is listed as 0.2%; in data set [2] (Exposure 100 mJ), 0.4%; in data set [2] (Exposure 400 mJ), 0.9%; in data set [3] (Exposure 50 mJ), 22.0%; in data set [3] (Exposure 100 mJ), 28.2%; in data set [3] (Exposure 400 mJ) it was 40.0%. In addition, the “Compatibility with M305” value in data set [2] and in data set [3] was “∘” in each case.
`C=COCCCn1c(=O)c2ccccc2c2ccccc2c1=O` [Compound 5]: the “5% heat decomposition temperature” value in data set [1] (nitrogen atmosphere) stood at 213 °C. In addition, the “Reaction rate (decrement of double bond)” value in data set [2] (Exposure 50 mJ) is listed as 0.4%; in data set [2] (Exposure 100 mJ), 0.7%; in data set [2] (Exposure 400 mJ), 2.3%; in data set [3] (Exposure 50 mJ), 23.8%; in data set [3] (Exposure 100 mJ), 29.2%; in data set [3] (Exposure 400 mJ) it was 41.0%. The “Compatibility with M305” value in data set [2] and in data set [3] was “∘” in each case.
On to `CC(=O)OCCOCCOCCn1c(=O)c2ccccc2c2ccccc2c1=O` [Compound 6], for which the “5% heat decomposition temperature” value in data set [1] (nitrogen atmosphere) stood at 257 °C. The “Reaction rate (decrement of double bond)” value is 3.2% in data set [2] (Exposure 50 mJ); 5.4% in data set [2] (Exposure 100 mJ); 14.2% in data set [2] (Exposure 400 mJ); 33.1% in data set [3] (Exposure 50 mJ); 37.9% in data set [3] (Exposure 100 mJ); 47.9% in data set [3] (Exposure 400 mJ). In addition, the “Compatibility with M305” value in data set [2] and in data set [3] was “∘” in each case.
`C=CC(=O)OCCn1c(=O)c2ccccc2c2ccccc2c1=O` [Compound 7]: in data set [1], the residue on heating result is recorded as “carbide was left not decomposed completely”. Besides, the “5% heat decomposition temperature” value in data set [1] (nitrogen atmosphere) came out at 233 °C. The “Reaction rate (decrement of double bond)” value amounted to 1.5% in data set [2] (Exposure 50 mJ); 3.4% in data set [2] (Exposure 100 mJ); 7.7% in data set [2] (Exposure 400 mJ); 25.3% in data set [3] (Exposure 50 mJ); 30.1% in data set [3] (Exposure 100 mJ); 41.3% in data set [3] (Exposure 400 mJ). Moreover, the “Compatibility with M305” value in data set [2] and in data set [3] was “∘” in each case.
In the case of `C=CC(=O)OCCOCCn1c(=O)c2ccccc2c2ccccc2c1=O` [Compound 8], the “heat resistance / 5% reduction in weight temperature, comparison in words” value in data set [1] (10° C./min, nitrogen atmosphere) is given as “specifically high”. Further, the residue on heating entry in data set [1] is given as “carbide was left not decomposed completely”. Besides, in data set [1] (nitrogen atmosphere), the “5% heat decomposition temperature” value is 357 °C. In addition, the “Reaction rate (decrement of double bond)” value in data set [2] (Exposure 50 mJ) came to 5.0%; in data set [2] (Exposure 100 mJ), 7.3%; in data set [2] (Exposure 400 mJ) it was 21.4%; in data set [3] (Exposure 50 mJ), 36.2%; in data set [3] (Exposure 100 mJ), 41.4%; in data set [3] (Exposure 400 mJ) it was 51.4%. The “Compatibility with M305” value in data set [2] and in data set [3] was “∘” in each case.
On to `C=CC(=O)OCCOCCOCCn1c(=O)c2ccccc2c2ccccc2c1=O` [Compound 9], for which the “5% heat decomposition temperature” value in data set [1] (nitrogen atmosphere) came to 295 °C. For the same compound, the “Reaction rate (decrement of double bond)” value in data set [2] (Exposure 50 mJ) is on record as 0.5%; in data set [2] (Exposure 100 mJ), 0.7%; in data set [2] (Exposure 400 mJ), 1.2%; in data set [3] (Exposure 50 mJ) it was 13.8%; in data set [3] (Exposure 100 mJ), 19.9%; in data set [3] (Exposure 400 mJ), 34.4%. Also, the “Compatibility with M305” value in data set [2] and in data set [3] was “∘” throughout.
Turning to `O=c1c2ccccc2c2ccccc2c(=O)n1CCOCCn1c(=O)c2ccccc2c2ccccc2c1=O` [Compound 10], the “5% heat decomposition temperature” value in data set [1] (nitrogen atmosphere) came to 204 °C. Further, the “Reaction rate (decrement of double bond)” value turned out to be 4.0% in data set [2] (Exposure 50 mJ); 6.8% in data set [2] (Exposure 100 mJ); 17.4% in data set [2] (Exposure 400 mJ); 30.8% in data set [3] (Exposure 50 mJ); 40.7% in data set [3] (Exposure 100 mJ); 45.9% in data set [3] (Exposure 400 mJ). In addition, the “Compatibility with M305” value in data set [2] and in data set [3] was “∘” in each case.
Consider `O=c1c2ccccc2c2ccccc2c(=O)n1CCOCCOCCOCCn1c(=O)c2ccccc2c2ccccc2c1=O` [Compound 11], for which the “5% heat decomposition temperature” value in data set [1] (nitrogen atmosphere) turned out to be 240 °C. Besides, the “Reaction rate (decrement of double bond)” value came to 27.9% in data set [2] (Exposure 50 mJ); 37.3% in data set [2] (Exposure 100 mJ); 42.3% in data set [2] (Exposure 400 mJ); 18.0% in data set [3] (Exposure 50 mJ); 21.3% in data set [3] (Exposure 100 mJ); 29.4% in data set [3] (Exposure 400 mJ). Moreover, the “Compatibility with M305” value in data set [2] and in data set [3] was “∘” in each case.
Turning to `O=c1c2ccccc2c2ccccc2c(=O)n1CCOCCOCCOCCOCCOCCn1c(=O)c2ccccc2c2ccccc2c1=O` [Compound 12], in data set [1] (nitrogen atmosphere), the “5% heat decomposition temperature” value came to 276 °C. In addition, the “Reaction rate (decrement of double bond)” value worked out at 11.0% in data set [2] (Exposure 50 mJ); 15.2% in data set [2] (Exposure 100 mJ); 24.8% in data set [2] (Exposure 400 mJ); 25.2% in data set [3] (Exposure 50 mJ); 30.7% in data set [3] (Exposure 100 mJ); 40.6% in data set [3] (Exposure 400 mJ). Moreover, the “Compatibility with M305” value in data set [2] and in data set [3] was “∘” throughout.
Turning to `CSc1ccc(C(=O)C(C)(C)N2CCOCC2)cc1` [Irg907, reference compound], the “5% heat decomposition temperature” value in data set [1] (nitrogen atmosphere) turned out to be 207 °C. Besides, the “Reaction rate (decrement of double bond)” value came to 34.8% in data set [2] (Exposure 50 mJ), 40.8% in data set [2] (Exposure 100 mJ) and 50.6% in data set [2] (Exposure 400 mJ). Besides, the “Compatibility with M305” value in data set [2] is recorded as “∘”.
